{"source": "paper PMC8032668", "about": "“Evaluation of carboxyfluorescein-labeled 7-methylguanine nucleotides as probes for studying cap-binding proteins by fluorescence anisotropy” (Scientific Reports, 2021)", "key": {"DcpS [1]": {"tested_on": "DcpS", "set-up": "method as in PMID 27031609", "details": "DcpS inhibition, FR assay; cited from earlier work"}, "DcpS [2]": {"target": "T1, DcpS (Homo sapiens, UniProt Q96C86)", "T1 construct": "His tag; made in house; host or cells: E. coli BL21(DE3) RIL", "T1 sequence (Q96C86 1-337)": "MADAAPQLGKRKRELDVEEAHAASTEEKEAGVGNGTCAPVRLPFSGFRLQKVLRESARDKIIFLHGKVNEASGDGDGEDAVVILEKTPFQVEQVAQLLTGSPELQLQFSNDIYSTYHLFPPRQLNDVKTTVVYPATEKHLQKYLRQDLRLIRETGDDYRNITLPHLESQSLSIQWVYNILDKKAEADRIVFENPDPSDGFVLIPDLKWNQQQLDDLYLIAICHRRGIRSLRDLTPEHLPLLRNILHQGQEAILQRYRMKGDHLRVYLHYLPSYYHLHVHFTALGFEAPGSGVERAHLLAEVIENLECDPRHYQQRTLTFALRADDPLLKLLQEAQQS", "test": "FA screening of in-house library, 2i:DcpS system", "format": "binding", "details": "1 nM 2i, 25 nM DcpS, 1.5 µM inhibitor", "description": "The Z’ factor was determined under conditions optimized for the competition assay. The Z’ value exceeded 0.8 for incubation times up to 1 h, making the assay suitable for screening experiments (Table 5). A screening experiment was then performed using the same compound library as that used for eIF4E screening. The results highlighted the impact of the triphosphate bridge modification on the affinity for the protein. […] The FA method also enabled the identification of unstable compounds, e.g., hydrozylable ligands for which determination of affinity is problematic (as observed by FA signal changes during the experiment; Fig. 7).\nTo evaluate the quality of the assay, the Z’ factor was determined for several protein-probe combinations. The assay was performed on 96-well microplates, where half of the samples were negative controls and the other half were positive controls.\nFor the screening experiments a small in-house library containing 21 ligands was used. Experiments were conducted in the same manner as Z’ factor determination, with exception that the ligand concentration was modified (eIF4E screening conditions: 1 nM 1e, 100 nM eIF4E, 750 nM ligand, DcpS screening conditions: 1 nM 2i, 25 nM DcpS, 1.5 µM ligand). For eIF4E screening experiment, the 1e:eIF4E system was used, for DcpS screening 2i:DcpS system was used."}, "DcpS [3]": {"target": "T1, DcpS", "test": "FA competition assay for DcpS", "format": "binding", "description": "Expression of recombinant His-tagged human DcpS was performed in BL21(DE3) RIL strain and induced overnight at 18 °C using 0.5 mM IPTG as described previously. Cells were harvested, resuspended in buffer (50 mM Tris pH 7.6, 500 mM NaCl, 20 mM imidazole) with lysozyme (0.1 mg/ml) and protease inhibitors (1 mM PMSF, 1 µM pepstatin A, 0.3 µM aprotinin) and then lysed using sonication. Lysate was clarified by centrifugation at 35 000 × g for 40 min at 4 °C. […] The enzyme hDcpS was purified to homogeneity on HiLoad 16/600 Superdex 200 pg (GE Healthcare) gel filtration column using 50 mM Tris·HCl pH 7.6, 200 mM NaCl, 2 mM DTT buffer. Protein was aliquoted and stored in the presence of 10% glycerol at -80 °C.\n(§1) Experiments were carried out at 25 °C in 96-well non-binding microplates with sample volume of 200 µl per well. Two different buffers were used depending on protein used in the assay:\nDcpS assay buffer—50 mM Tris–HCl (pH 7.6), 200 mM KCl, 0.5 mM EDTA, 1 mM DTT.\n(§2) For competitive binding assay, a mixture containing the probe and the protein was incubated with the tested ligand.\n(§3) In competitive measurements, a constant concentration of the protein and fluorescent probe and increasing concentration of the test ligand were used. At least 12 point dilutions of the tested compound were used. The experiments were carried out in 96-well plates. Each sample contained a mixture consisting of the probe, tested ligand and buffer (same as for the direct binding assay). The samples were incubated for 10 min at 25 °C with simultaneous shaking, then the protein was added to each well, incubated for additional 3 min, followed by the measurement of fluorescence anisotropy. FA signals were recorded for 20 min with 2 min intervals."}, "eIF4E": {"target": "T2, eIF4E (Mus musculus, UniProt P63073)", "T2 construct": "Murine eIF4E (residues 28–217) was expressed in E. coli; made in house; host or cells: E. coli", "T2 sequence (P63073 28-217)": "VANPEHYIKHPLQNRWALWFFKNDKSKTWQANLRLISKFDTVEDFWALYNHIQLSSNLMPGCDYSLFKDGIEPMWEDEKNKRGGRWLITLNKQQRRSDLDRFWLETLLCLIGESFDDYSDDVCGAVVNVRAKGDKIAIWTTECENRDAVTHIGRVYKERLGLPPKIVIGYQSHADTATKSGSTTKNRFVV", "test": "FA competition (probe-displacement) assay for eIF4E", "format": "binding, Murine", "details": "for EC50: HEPES pH 7.2", "description": "Inclusion bodies containing eIF4E were solubilized in 50 mM HEPES/KOH (pH 7.2) buffer containing 10% glycerol, 6 M guanidine hydrochloride and 2 mM DTT. Protein was then refolded during a two-step dialysis against buffer with decreasing concentration of guanidine hydrochloride in the presence of 100 mM KCl. Subsequently eIF4E was loaded on ion exchange HiTrap SP HP column (GE Healthcare), eluted with linear gradient of 0.1–1 M KCl and finally desalted and polished during a gel filtration purification step on HiLoad 16/600 Superdex 75 pg (GE Healthcare) using 50 mM HEPES pH 7.2, 100 mM KCl, 0.5 mM EDTA, 2 mM DTT buffer. eIF4E was aliquoted and stored in the presence of 10% glycerol at −80 °C. Before each experiment the protein was centrifuged on Ultrafree-MC Centrifugal PVDF filter with […] pore size (Millipore), at 4 °C and 3000×g for 2 min to remove any possible aggregates.\nas §1\neIF4E assay buffer—50 mM HEPES (pH 7.2), 100 mM KCl, 0.5 mM EDTA, 1 mM DTT.\nas §2, §3"}, "4G peptide": {"target": "4G peptide (UniProt Q04637)", "test": "fluorescence anisotropy", "details": "cited from earlier work"}, "[4]": {"details": "1f:DcpS system, 1f and 100 nM DcpS"}, "[5]": {"details": "2g:DcpS system, 2 nM 2g and 25 nM DcpS"}, "[6]": {"details": "2i:DcpS system, 1 nM 2i and 25 nM DcpS"}, "[7]": {"details": "2h:DcpS system, 2 nM 2h and 25 nM DcpS"}, "[8]": {"details": "Probe 1a: 10 nM probe 1a and 100 nM eIF4E"}, "[9]": {"details": "Probe 1b: 1 nM probe 1b and 15 nM eIF4E"}, "[10]": {"details": "Probe 1e: footnote c, 1 nM probe 1c and 100 nM eIF4E"}}, "data": [{"compound": "C[n+]1cn([C@@H]2O[C@H](COP(=O)([O-])NP(=O)(O)OP(=O)(O)OC[C@H]3O[C@@H](n4cnc5c(=O)[nH]c(N)nc54)[C@H](O)[C@@H]3O)[C@@H](O)[C@H]2O)c2nc(N)[nH]c(=O)c21.N.N", "note": "[m^7GpNHppG]", "values": [{"measurement": "IC50", "setting": "DcpS [1]", "result": "3200 ± 900", "unit": "nM"}, {"measurement": "inhibitory potency in DcpS screening", "setting": "DcpS [2]", "result": "strong DcpS inhibitors"}, {"measurement": "EC50", "setting": "DcpS [3]; [4]", "result": "27.8 ± 2.7", "unit": "nM"}, {"measurement": "Hill slope", "setting": "DcpS [3]; [4]", "result": "2.26 ± 0.16"}, {"measurement": "EC50", "setting": "DcpS [3]; [5]", "result": "11.6 ± 0.4", "unit": "nM"}, {"measurement": "Hill slope", "setting": "DcpS [3]; [5]", "result": "1.95 ± 0.07"}, {"measurement": "EC50", "setting": "DcpS [3]; [6]", "result": "17.9 ± 1.3", "unit": "nM"}, {"measurement": "Hill slope", "setting": "DcpS [3]; [6]", "result": "1.66 ± 0.10"}, {"measurement": "EC50", "setting": "DcpS [3]; [7]", "result": "18.1 ± 5", "unit": "nM"}, {"measurement": "Hill slope", "setting": "DcpS [3]; [7]", "result": "1.23 ± 0.44"}]}, {"compound": "C[n+]1cn([C@@H]2O[C@H](COP(=O)([S-])OP(=O)(O)OP(=O)(O)OC[C@H]3O[C@@H](n4cnc5c(=O)[nH]c(N)nc54)[C@H](O)[C@@H]3O)[C@@H](O)[C@H]2O)c2nc(N)nc(O)c21", "note": "(stereo partly drawn) [m^7GpSppG D1]", "values": [{"measurement": "stability towards DcpS (FA signal changes during the screening experiment)", "setting": "DcpS [2]", "result": "slowly hydrolyzed DcpS substrates"}]}, {"compound": "[BH3-]P(=O)(OP(=O)(O)OCC1OC(n2cnc3c(=O)[nH]c(N)nc32)C(O)C1O)OP(=O)(O)OCC1OC(n2c[n+](C)c3c(=O)[nH]c(N)nc32)C(O)C1O", "note": "(stereo not drawn) [m^7GppBH3pG D1]", "values": [{"measurement": "stability towards DcpS (FA signal changes during the screening experiment)", "setting": "DcpS [2]", "result": "slowly hydrolyzed DcpS substrates"}]}, {"compound": "[BH3-]P(=O)(OP(=O)(O)OCC1OC(n2cnc3c(=O)[nH]c(N)nc32)C(O)C1O)OP(=O)(O)OCC1OC(n2c[n+](C)c3c(=O)[nH]c(N)nc32)C(O)C1O", "note": "(stereo not drawn) [m^7GppBH3pG D2]", "values": [{"measurement": "stability towards DcpS (FA signal changes during the screening experiment)", "setting": "DcpS [2]", "result": "slowly hydrolyzed DcpS substrates"}]}, {"compound": "Cn1c[n+]([C@@H]2O[C@H](COP(=O)(O)OP(=O)([O-])OP(=O)(O)OC[C@H]3O[C@@H](n4cnc5c(=O)[nH]c(N)nc54)[C@H](O)[C@@H]3O)[C@@H](O)[C@H]2O)c2nc(N)[nH]c(=O)c21", "note": "[m^7GpppG]", "values": [{"measurement": "Hill slope", "setting": "eIF4E; [8]", "result": "1.12 ± 0.03"}, {"measurement": "EC50", "setting": "eIF4E; [8]", "result": "413 ± 13", "unit": "nM"}, {"measurement": "Hill slope", "setting": "eIF4E; [9]", "result": "1.12 ± 0.06"}, {"measurement": "EC50", "setting": "eIF4E; [9]", "result": "599 ± 64", "unit": "nM"}, {"measurement": "Hill slope", "setting": "eIF4E; [10]", "result": "1.08 ± 0.11"}, {"measurement": "EC50", "setting": "eIF4E; [10]", "result": "551 ± 75", "unit": "nM"}]}, {"compound": "eIF4E (from UniProt P06730)", "values": [{"measurement": "Kd", "setting": "4G peptide", "result": 25000, "unit": "nM"}]}, {"compound": "m^7GSppSpG D1", "values": [{"measurement": "inhibitory potency in DcpS screening", "setting": "DcpS [2]", "result": "the most potent inhibitors"}]}, {"compound": "m^7GSppSpG D2", "values": [{"measurement": "inhibitory potency in DcpS screening", "setting": "DcpS [2]", "result": "the most potent inhibitors"}]}, {"compound": "m^7GSppSpSG D1", "values": [{"measurement": "inhibitory potency in DcpS screening", "setting": "DcpS [2]", "result": "the most potent inhibitors"}]}, {"compound": "m^7GSppSpSG D2", "values": [{"measurement": "inhibitory potency in DcpS screening", "setting": "DcpS [2]", "result": "the most potent inhibitors"}]}]}
